Assay results as given in US20140065122A1, “Method for Removing a Microorganism Biofilm” (priority 2010, published 2014).

How the values were obtained:
[1] = test system: Staphylococcus aureus RN4220 GFP biofilm; experiment: Examples 4 and 5: log reduction of Staphylococcus aureus biofilm after bacterial pretreatment followed by benzalkonium chloride; assay type: cell-based; conditions: Example 5; treatment with C14 benzalkonium chloride after pretreatment with the named strain(s)
Method: The target biofilms of Staphylococcus aureus RN4220 GFP cultivated in microplates and bacilli cultures used are obtained according to the method previously described for Bacillus thuringiensis 407.
On a microplate containing 24-hour biofilms of Staphylococcus aureus RN4220 GFP having a thickness greater than 30 μm, one carefully removes 250 μL of supernatant from each well. 250 μL of culture medium (control) or suspension of: • Bt • BtΔfla • Bl • or Bt+Bl at equal concentrations, calibrated at 10^8 cells/mL are then added to each well.
The Staphylococcus aureus biofilms in the presence or not of bacteria are then incubated at 37° C. for 4 hours to allow infiltration of swimming bacteria. The supernatants are eliminated prior to placement into contact with the biocide.
These target biofilms are then treated by adding to the wells 200 μL of C14 benzalkonium chloride (BAC, Fluka, Buchs, Switzerland) at a concentration of 750 ppm, or 200 μl of […] sodium chloride (NaCl) (“non-treated” biofilm. […]
The surviving S. aureus are counted on TSA agar after serialized dilutions in 150-mM NaCI and incubation for 24 hours at 37° C.
The log 10 reductions of the S. aureus bacteria are calculated by comparing the relationship of the surviving ones in the disinfected biofilms to the population of non-treated biofilms. […]

[2] = test system: Staphylococcus aureus RN4220 GFP biofilm; experiment: Example 2: Staphylococcus aureus biofilm treated with lysostaphin with or without pretreatment by swimming Bacillus thuringiensis 407, residual biovolume; assay type: cell-based
Method: The strains of bacteria used for these experiments correspond to strains of Staphylococcus aureus RN4220 GFP and Bacillus thuringiensis 407 described in Table I.
The target biofilms of Staphylococcus aureus RN4220 GFP cultivated in microplates and the Bacillus thuringiensis 407 cultures used are obtained according to the method described previously.
On a microplate containing 24-hour biofilms of Staphylococcus aureus RN4220 GFP having a thickness of more than 30 μm, one carefully removes 250 μL of supernatant from each well. 250 μL of culture medium (control) or suspension of Bacillus thuringiensis 407 calibrated at 10^8 cells/mL are then added into each well.
The Staphylococcus aureus biofilms in the presence or not of swimming bacteria are then incubated at 37° C. for 4 hours.
These target biofilms, sensitized or not for 4 hours by a cocktail of swimming bacteria, are then treated by adding into the wells 250 μL of lysostaphin in a concentration range of 0 to 0.5 μg/ml.
The same experimental device as the one described in the first experiment was used to quantify the effectiveness of treatment (comparison between the residual biovolume of the target biofilm during activity of the lysostaphin with or without pretreatment and a cocktail of swimming bacteria).

In the case of C14 benzalkonium chloride, the “Log reduction (+/−0.2)” value [1] is reported as −0.9 log.

In the case of lysostaphin, the “eradication of the target biofilm by the antimicrobial compound alone” value ([2]; lysostaphin concentration <0.5 μg/ml, without pretreatment) is reported as “does not allow eradication” and the “effectiveness on the target biofilm after pretreatment with a cocktail of swimming bacteria” value ([2]; pretreatment Bacillus thuringiensis 407 10^8 cells/mL 4 hours, lysostaphin 0 to 0.5 μg/ml, P<0.05) is reported as “improved”.
